For series [1], the system named is HUVECs. Kind of series: NO production in HUVECs. It counts as cell-based, human. The conditions noted are these: 24 h, mean ± SD. The source says:
NO and ET-1 productions in treated cells were obtained by employing human NO and ET-1 assay kits according to the manufacturers' protocol.

The test system of series [2] is HUVECs. Description: ET-1 secretion of HUVECs. The settings on record: NE 0.5 μM, 24 h, mean ± SD. It counts as cell-based, human. Here is the method: The NO and ET-1 contents of HUVECs were determined after a 24 h treatment of ACEi peptides (STAP3, STAP4, STAP7, and STAP11, respectively) ([34]). HUVECs received the plating process in 6-well plates and the treating process with Cap (1 μM), NE (0.5 μM), designed concentrations of ACEi peptides (100, 200, and 400 μM) for 24 h, or treated with both NE (0.5 μM) and 200 μM ACEi peptides for 24 h. NO and ET-1 productions in treated cells were obtained by employing human NO and ET-1 assay kits according to the manufacturers' protocol.

In series [3] the test system is HUVECs. Description: HUVEC cell viability (MTT assay). The series is classed as cell-based, human. Here is the method: After thawing, HUVECs were maintained in cultured flasks and cultured to confluence in DMEM containing 1% penicillin-streptomycin liquid, supplemented with 10% FBS. HUVECs received the culturing process at 37°C in a humidified 5% CO2 atmosphere ([34]).
The cytotoxicity of STAP3, STAP4, STAP7, and STAP11 on HUVECs was assessed using MTT assay on manufacturer's instructions ([34]). In brief, HUVECs received the incubation in 96-well plates at a density of 0.8 × 10^4 cells per well with 180 μl completed DMEM. Following the confluence of 50–60% in the 96-well plates, cells were treated with 20 μl peptides under-designed concentrations (100, 200, and 400 μM) and further cultured for 24 h at 37°C. Subsequently, cells were added with 20 μL MTT solutions (5 mg/mL) and incubated for 4 h. Finally, DMSO was added into each well and the absorbance (A) at 490 nm was determined. The cell viability was calculated as:
Cell viability(% of blank control)=(Aexperiment group/Acontrol group)×100.
Background: Tetrazolium assays rely on reduction of a dye to a coloured formazan, in cell work by metabolically active cells.

For the next series, the system named is ACE. The conditions noted are these: cited from earlier work; for IC50: data in the AHTPDB database, read-out: IC50 (ACEi ability). The source says:
Then, Ser residue, especially its hydroxyl group, should play a vital effect on the ACEi capability of STAP4, STAP7, and STAP11 ([67]). Yust et al. made clear that short peptide sequences ...

Setting [4] is: 100, 200 and 400 μM, 24 h, MTT, % of blank control.

Where two headings read alike, the source gives them in different places. Where a SMILES comes first, the peptide text is derived from it.

In the series with HUVECs [1] (Cap 1 μM, positive control), `C[C@H](CS)C(=O)N1CCC[C@H]1C(=O)O` [Cap, captopril] registered an NO level of 65.96 ± 1.83 μmol/gprot.
In turn, `NC[C@H](O)c1ccc(O)c(O)c1` [NE, norepinephrine] showed an NO level with HUVECs [1] (NE 0.5 μM) of 24.25 ± 0.63 μmol/gprot. The ET-1 secretion in the series on HUVECs [2] is 140.23 ± 5.81 pg/mL.
For the molecule `C[C@@H](O)[C@H](N)C(=O)N[C@@H](CCC(=O)O)C(=O)O` [STAP1, Thr-Glu] (H-Thr-Glu-OH), the cell viability (commonly a read-out of living cells in per cent, often relative to untreated cells) in the series with HUVECs [3] (100 µM, SD) is 108.52 ± 5.19%.
For the molecule `CSCC[C@H](N)C(=O)N[C@@H](CCC(=O)O)C(=O)N[C@@H](CCCCN)C(=O)N[C@@H](CO)C(=O)O` [STAP4, Met-Glu-Lys-Ser] (H-MEKS-OH), in the series on HUVECs [3] (setting [4]), the cell viability result is recorded as “no significant influence on the proliferation of HUVECs”.
In the case of `CSCC[C@H](N)C(=O)N[C@@H](CCCCN)C(=O)N[C@@H](CCCCN)C(=O)N[C@@H](CO)C(=O)O` [STAP7, Met-Lys-Lys-Ser] (H-MKKS-OH), the cell viability entry in the series on HUVECs [3] (setting [4]) is given as “no significant influence on the proliferation of HUVECs”.
In the case of `CC(C)C[C@H](N)C(=O)N1CCC[C@H]1C(=O)N[C@@H](CCCNC(=N)N)C(=O)N[C@@H](CO)C(=O)O` [STAP11, Leu-Pro-Arg-Ser] (H-LPRS-OH), the cell viability in the series with HUVECs [3] (400 µM, SD) is 91.07 ± 1.36%; in the series on HUVECs [3] (setting [4]), “no significant influence on the proliferation of HUVECs”.
Regarding EHPVL [ACEi peptide from stone fish], the “IC50 (ACEi)” value in the series on ACE (peptides from stone fish) is 1680 µg/mL.
As to EVLIQ [ACEi peptide from stone fish], the “IC50 (ACEi)” value with ACE (peptides from stone fish) was 1440 µg/mL.
For the molecule “IRWCT [ACEi peptide in the AHTPDB database]”, the IC50 (usually the concentration that gives 50% inhibition) in the series on ACE is 1000 nM.
As for LAPPTM [ACEi peptide from stone fish], the “IC50 (ACEi)” value in the series on ACE (peptides from stone fish) is 1310 µg/mL.
Take “LGPLGHQ [ACEi peptide from skate (Okamejei kenojei)]”: the “IC50 (ACEi)” value in the series with ACE (peptides from Okamejei kenojei) is 3490 µg/mL; with ACE (peptides from skate), 4220 µg/mL.
Take “MIFPGAGGPEL [ACEi peptide in the AHTPDB database]”: in the series with ACE, the IC50 is 30 nM.
In the case of “MVGSAPGVL [ACEi peptide from skate (Okamejei kenojei)]”, the “IC50 (ACEi)” value in the series on ACE (peptides from Okamejei kenojei) and in the series on ACE (peptides from skate) was 3090 µg/mL each time.
On to “PYVRYL [ACEi peptide in the AHTPDB database]”, for which the IC50 in the series on ACE is 1900 nM.
On to “RYRP [ACEi peptide from protein hydrolysate of Saurida elongate]”, for which the “IC50 (ACEi)” value in the series with ACE (peptide from Saurida elongate) was 3350 µg/mL.
Regarding “VFPS [ACEi peptide in the AHTPDB database]”, the IC50 in the series on ACE was 460 nM.
Take “WRKER [ACEi peptide from Antarctic krill]”: in the series on ACE (peptides from Antarctic krill), the “IC50 (ACEi)” value is 3285 µg/mL.
